Data as given in patent publication US20070032404A1, “Methods for treating diabetes and related disorders using pde10a inhibitors” (Bayer Pharmaceuticals Corporation, priority 2003, published 2007).

Experiments:
PDE2 = PDE2 (Homo sapiens, UniProt O00408); assay: PDE2 inhibition assay (SPA, 3H-cAMP); format: biochemical; settings: Table 2
Protocol: (§1) Test compounds and PDE10A enzyme in assay buffer are added to 96-well whitewall/clear bottom isoplates (Wallac). The reaction is initiated by the addition of ^3H-cAMP (Amersham) or ^3H-cGMP (Amersham). Following a 45-minute incubation at room temperature, the reaction is stopped by the addition of SPA yttrium silicate beads (Amersham). The samples are incubated for an additional 30 minutes, and the plates are read in the Microbeta (Wallac) for 30 seconds in the SPA mode. Data may be expressed as a percentage of control. To measure PDE2, PDE3A, PDE4B, and PDE10A activity, 3H-cAMP may be used as a substrate; and to measure PDE5 activity, 3H-cGMP may be used as a substrate.
(§2) These same compounds were run in inhibition assays for PDE2, PDE3A, PDE4B, and PDE5. […] The compounds are therefore selective for PDE10A.

PDE5 = PDE5 (Homo sapiens, UniProt O76074); assay: PDE5 inhibition assay (SPA, 3H-cGMP); format: biochemical; settings: Table 2
Protocol: as §1, §2

[1] = tested on: dispersed pancreatic islets; assay: Dispersed islet assay (insulin secretion); format: cell-based, rat; settings: 8 mM glucose, 0.3 μM forskolin, 30 minutes; control = 8 mM glucose and 0.3 μM forskolin
Protocol: Dispersed pancreatic islet isolation. Lean rats (male Sprague-Dawley, 200-250 g) are anesthetized with nembutal (60 mg/kg, i.p.) and the abdomen opened to expose the liver and pancreas. The pancreas is distended by injection of Hank's solution into the bile duct, and then the pancreas is excised and minced with scissors while in Hank's solution. After rinsing the tissue with buffer, the pancreas is digested for 10 minutes with collagenase, rinsed, and the islets separated from debris on a Ficoll gradient. The isolated islet fraction is then rinsed with buffer, incubated with EDTA for 8 minutes, followed by incubation with trypsin and DNAase I for an additional 10 minutes. The dispersed islets are transferred to culture media containing 8 mM glucose, seeded in “V-bottom” 96-well plates (2,500 cells per well), and cultured overnight.
For assaying insulinotropic compounds, the dispersed islets are pre-incubated in 3 mM glucose for 30 minutes. The islets are then transferred to media containing 8 mM glucose, test compounds, and 0.3 μM forskolin; and incubated for an additional 30 minutes. The media is then assayed for insulin content using, for example, a SPA assay. Insulin secretion is reported as fold over control (FOC), where the control is the amount of insulin secretion in the presence of 8 mM glucose and 0.3 μM forskolin.

PDE3A = PDE3A (Homo sapiens, UniProt Q14432); assay: PDE3A inhibition assay (SPA, 3H-cAMP); format: biochemical; settings: Table 2; read-out: PDE3 IC50
Protocol: as §1, §2

PDE4B = PDE4B (Homo sapiens, UniProt Q07343); assay: PDE4B inhibition assay (SPA, 3H-cAMP); format: biochemical; settings: Table 2
Protocol: as §1, §2

PDE10A = PDE10A (Homo sapiens, UniProt Q9Y233); assay: PDE10A inhibition assay (SPA, 3H-cAMP); format: biochemical; settings: Table 2
Protocol: as §1

Chain of PDE3A (Q14432 whole entry, species assumed): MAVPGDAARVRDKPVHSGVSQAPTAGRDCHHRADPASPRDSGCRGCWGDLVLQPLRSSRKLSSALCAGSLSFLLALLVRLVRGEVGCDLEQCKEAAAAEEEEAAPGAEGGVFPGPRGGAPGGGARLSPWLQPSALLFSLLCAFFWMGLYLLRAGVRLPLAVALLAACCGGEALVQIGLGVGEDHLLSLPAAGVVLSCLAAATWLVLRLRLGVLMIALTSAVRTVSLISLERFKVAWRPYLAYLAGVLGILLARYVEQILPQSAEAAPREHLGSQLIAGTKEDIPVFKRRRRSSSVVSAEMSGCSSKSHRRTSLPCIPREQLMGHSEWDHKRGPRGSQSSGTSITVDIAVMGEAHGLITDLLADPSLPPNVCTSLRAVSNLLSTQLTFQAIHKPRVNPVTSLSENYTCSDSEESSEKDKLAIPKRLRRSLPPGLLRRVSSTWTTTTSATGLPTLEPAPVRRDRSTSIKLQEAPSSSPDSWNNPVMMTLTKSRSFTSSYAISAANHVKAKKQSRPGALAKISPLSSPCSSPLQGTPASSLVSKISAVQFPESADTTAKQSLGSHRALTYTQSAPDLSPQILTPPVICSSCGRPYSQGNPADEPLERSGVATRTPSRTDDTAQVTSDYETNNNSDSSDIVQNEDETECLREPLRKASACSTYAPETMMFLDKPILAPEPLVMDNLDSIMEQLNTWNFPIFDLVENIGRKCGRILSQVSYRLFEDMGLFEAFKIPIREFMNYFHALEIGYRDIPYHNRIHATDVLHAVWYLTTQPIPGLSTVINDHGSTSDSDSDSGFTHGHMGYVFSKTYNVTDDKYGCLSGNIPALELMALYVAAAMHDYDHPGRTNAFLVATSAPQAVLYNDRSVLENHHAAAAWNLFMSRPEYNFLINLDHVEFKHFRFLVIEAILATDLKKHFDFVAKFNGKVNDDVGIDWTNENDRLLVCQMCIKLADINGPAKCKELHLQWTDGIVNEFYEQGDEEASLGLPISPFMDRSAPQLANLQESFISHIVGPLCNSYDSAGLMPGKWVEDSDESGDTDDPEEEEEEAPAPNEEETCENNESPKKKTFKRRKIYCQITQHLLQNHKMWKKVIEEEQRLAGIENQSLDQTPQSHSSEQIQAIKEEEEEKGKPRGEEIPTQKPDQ
Chain of PDE10A (Q9Y233 whole entry, species assumed): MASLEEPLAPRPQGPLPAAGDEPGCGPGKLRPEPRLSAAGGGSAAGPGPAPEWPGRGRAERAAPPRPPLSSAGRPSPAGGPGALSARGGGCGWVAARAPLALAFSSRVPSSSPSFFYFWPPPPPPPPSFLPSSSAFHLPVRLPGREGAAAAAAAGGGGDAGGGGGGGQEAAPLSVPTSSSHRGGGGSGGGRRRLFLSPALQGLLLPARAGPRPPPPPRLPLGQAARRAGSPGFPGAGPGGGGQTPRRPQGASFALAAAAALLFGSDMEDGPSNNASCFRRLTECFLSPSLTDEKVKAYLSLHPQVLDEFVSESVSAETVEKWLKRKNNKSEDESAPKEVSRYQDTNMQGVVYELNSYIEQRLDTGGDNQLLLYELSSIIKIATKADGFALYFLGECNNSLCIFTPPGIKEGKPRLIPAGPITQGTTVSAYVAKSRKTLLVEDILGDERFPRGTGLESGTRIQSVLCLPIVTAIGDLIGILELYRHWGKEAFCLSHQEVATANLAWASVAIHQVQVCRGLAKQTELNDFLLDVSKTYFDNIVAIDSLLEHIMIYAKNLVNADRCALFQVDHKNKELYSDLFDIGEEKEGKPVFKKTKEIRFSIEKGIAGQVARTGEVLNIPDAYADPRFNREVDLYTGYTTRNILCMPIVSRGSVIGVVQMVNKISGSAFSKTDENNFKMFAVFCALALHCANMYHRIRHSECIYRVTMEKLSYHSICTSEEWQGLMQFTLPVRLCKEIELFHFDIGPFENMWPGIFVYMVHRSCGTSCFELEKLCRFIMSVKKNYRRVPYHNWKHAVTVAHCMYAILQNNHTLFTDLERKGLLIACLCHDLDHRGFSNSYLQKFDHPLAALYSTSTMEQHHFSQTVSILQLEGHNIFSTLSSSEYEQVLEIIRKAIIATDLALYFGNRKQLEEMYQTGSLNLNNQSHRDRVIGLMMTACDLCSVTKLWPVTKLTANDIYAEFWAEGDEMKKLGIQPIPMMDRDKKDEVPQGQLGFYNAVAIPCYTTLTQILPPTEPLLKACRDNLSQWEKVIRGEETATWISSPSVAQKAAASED
Chain of PDE2 (O00408 whole entry): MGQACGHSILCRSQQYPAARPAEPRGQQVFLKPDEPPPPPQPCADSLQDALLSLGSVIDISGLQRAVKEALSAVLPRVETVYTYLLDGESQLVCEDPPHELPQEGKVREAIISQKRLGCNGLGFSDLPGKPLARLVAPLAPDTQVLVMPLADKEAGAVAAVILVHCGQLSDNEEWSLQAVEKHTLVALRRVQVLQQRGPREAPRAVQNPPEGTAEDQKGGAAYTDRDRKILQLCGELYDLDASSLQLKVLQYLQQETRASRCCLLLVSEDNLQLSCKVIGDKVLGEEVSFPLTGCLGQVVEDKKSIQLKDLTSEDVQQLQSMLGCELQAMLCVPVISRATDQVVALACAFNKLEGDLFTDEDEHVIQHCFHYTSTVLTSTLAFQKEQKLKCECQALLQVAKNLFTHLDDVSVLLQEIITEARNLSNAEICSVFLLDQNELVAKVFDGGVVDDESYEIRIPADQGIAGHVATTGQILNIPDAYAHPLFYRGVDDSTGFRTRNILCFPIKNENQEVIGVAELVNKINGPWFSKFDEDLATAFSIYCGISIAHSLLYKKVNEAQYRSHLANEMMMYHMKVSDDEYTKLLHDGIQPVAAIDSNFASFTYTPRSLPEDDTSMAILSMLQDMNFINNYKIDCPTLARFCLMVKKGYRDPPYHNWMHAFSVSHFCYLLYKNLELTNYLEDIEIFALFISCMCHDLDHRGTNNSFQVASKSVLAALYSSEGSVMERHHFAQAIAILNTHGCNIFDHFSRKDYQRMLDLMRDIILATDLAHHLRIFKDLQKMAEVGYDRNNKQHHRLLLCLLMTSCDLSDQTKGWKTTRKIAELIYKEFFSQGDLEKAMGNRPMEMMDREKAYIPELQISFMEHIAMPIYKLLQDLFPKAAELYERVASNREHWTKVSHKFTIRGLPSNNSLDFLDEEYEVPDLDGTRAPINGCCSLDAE
Chain of PDE4B (Q07343 whole entry, species assumed): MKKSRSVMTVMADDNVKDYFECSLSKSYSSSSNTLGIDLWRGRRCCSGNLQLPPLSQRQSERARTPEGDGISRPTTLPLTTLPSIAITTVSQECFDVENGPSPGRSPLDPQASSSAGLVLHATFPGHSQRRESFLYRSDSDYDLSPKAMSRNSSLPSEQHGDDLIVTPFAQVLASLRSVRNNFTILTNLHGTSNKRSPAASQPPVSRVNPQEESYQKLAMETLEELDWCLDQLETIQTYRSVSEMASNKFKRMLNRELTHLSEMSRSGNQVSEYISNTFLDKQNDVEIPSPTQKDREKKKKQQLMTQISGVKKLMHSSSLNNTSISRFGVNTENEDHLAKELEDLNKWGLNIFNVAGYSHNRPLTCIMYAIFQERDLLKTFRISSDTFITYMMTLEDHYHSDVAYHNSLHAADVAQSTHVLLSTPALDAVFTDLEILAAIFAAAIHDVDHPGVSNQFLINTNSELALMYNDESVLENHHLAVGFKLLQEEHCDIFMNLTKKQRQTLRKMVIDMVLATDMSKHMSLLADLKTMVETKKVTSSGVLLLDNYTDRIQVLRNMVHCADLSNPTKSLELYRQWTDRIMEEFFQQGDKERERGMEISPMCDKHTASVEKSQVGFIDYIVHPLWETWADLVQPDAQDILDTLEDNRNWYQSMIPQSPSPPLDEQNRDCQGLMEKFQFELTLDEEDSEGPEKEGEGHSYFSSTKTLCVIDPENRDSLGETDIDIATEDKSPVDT

Row | IC50 (PDE2) [µM] | IC50 (PDE5) [µM] | IC50 (PDE3A) [µM] | IC50 (PDE4B) [µM] | IC50 (PDE10A) [µM] | SMILES | Insulin secretion, Fold-over-Control (FOC) [1]
1 | > 10 | > 10 | > 10 | > 10 | 0.0263 | CCOC(=O)c1c(-c2ccc(OC)c(OC)c2)c(C)n2c1-c1cc(OC)c(OC)cc1CC2 [C] | 1.48
2 |  |  | > 10 |  | 0.03 | CCOC(=O)c1c(-c2ccc(O)c3ncccc23)c(C)n2c1-c1cc(OC)c(OC)cc1CC2 [Compound A] | 1.4
3 | > 10 | > 10 | > 10 |  | 0.0327 | CCOC(=O)c1c(-c2ccc(OC)cc2OC)c(C)n2c1-c1cc(OC)c(OC)cc1CC2 [B] | 1.44
